{"source": "patent US20140357512A1", "about": "“HISTONE DEACETYLASE (HDAC) BIOMARKERS IN MULTIPLE MYELOMA” (priority 2013, published 2014)", "tested_on": "human myeloma cell line MM.1S", "assay": "SILAC acetylated-lysine peptide profiling, HDAC inhibitor vs DMSO (light/heavy ratio)", "format": "cell-based", "from_the_text": "An embodiment of the invention comprises utilizing the SILAC method in order to quantitate changes in protein expression between two or more populations of cells. The SILAC method is a technique based on mass spectrometry that detects differences in protein abundance among samples using non-radioactive isotopic labeling. The SILAC method is known in the art, and described in detail in Ong et al., “Stable Isotope Labeling by Amino Acids in Cell Culture, SILAC, as a Simple and Accurate Approach to Expression Proteomics”, Molecular & Cellular Proteomics, vol. 1, pp. 376-386 (2002), which is incorporated herein by reference in its entirety.\nBriefly, the SILAC method involves growing two populations of cells in cell culture. The first population of cells is grown in growth media containing normal amino acids (“normal media”). The second population of cells is grown in media lacking a standard essential amino acid (such as lysine), but is then supplemented with a non-radioactive, isotopically labeled form of that essential amino acid (such as lysine labeled with ^13C atoms, rather than normal ^12C atoms), which is called “heavy media”. When the two populations of cells are each growing in the medium, they incorporate the amino acids into all of their proteins. The growth of cells maintained in the heavy media is no different from that in normal media. All peptides containing the heavy amino acids are heavier than their normal counterparts. The cells from each of the two populations of cells are lysed. The lysates from each of the two cell populations are then combined. The combined cell lysates are then analyzed by mass spectrometry. Pairs of chemically identical peptides of different stable isotope composition can be differentiated in a mass spectrometer due to their difference in mass. The ratio of peak intensities in the mass spectrum for such peptide pairs reflects the abundance ratio for the two proteins.\nThis example describes SILAC studies that were performed to compare the effects of three different HDAC inhibitors (Compound A, Compound B, and tubastatin A) to a control on a human multiple myeloma cell line. The HDAC inhibitors were also compared amongst themselves to determine differences in their effects.\nA human myeloma cell line MM.1S was grown using either ^12C (light) or ^13C (heavy) lysine containing culture medium. The “heavy” cells were treated with DMSO as the control, and the “light” cells were treated with a single HDAC inhibitor at 37° C. for 6 hours. The heavy and light cells were lysed, and the lysates were mixed in 1:1 ratio and digested with the protease trypsin. The acetylated lysine containing peptides (due to the action of the HDAC inhibitor) in the digested peptide pool were captured by a non-specific anti-acetylated lysine antibody cocktail (the antibodies identify both light and heavy acetylated peptides), and subjected to mass spectrometry analysis in order to identify thousands of individual peptides.\nThousands of peptides were identified in pairs (^12C and ^13C) due to their known mass differences. The amino acid sequence and quantitative ratio (Light/Heavy) of a given peptide in two differentially treated cell lysates were then determined and annotated with their possible protein (gene) sources.\nAs stated above, three HDAC inhibitors (Compound A, Compound B, and Tubastatin A) were used. Thus, the SILAC method was performed three times, with a different HDAC inhibitor compared to a control each time. Accordingly, there are three pairs of quantitative data in the table below, i.e., Compound A:DMSO, Compound B:DMSO, and Tubastatin A:DMSO. A cut-off of 1.30 fold of change (increase or decrease) was then used to determine “changed” or “+” in the table, and any peptides with a fold of change less than 1.3 fold were determined to be “unchanged” or “0” in the table. Those peptides that were not identified were marked as “NA” in the table. […]", "data": [{"molecule": "O=C(CCCCCCNC(=O)c1cnc(N(c2ccccc2)c2ccccc2)nc1)NO", "note": "[Compound A, 2-(diphenylamino)-N-(7-(hydroxyamino)-7-oxoheptyl)pyrimidine-5-carboxamide]", "values": [{"measurement": "light to heavy ratio (L/H ratio) of acetylated peptide FVVEK(ac)AEQQK (SEQ ID NO: 263)", "setting": "Prohibitin [202], PHB, drug:DMSO", "value": 0.42, "unit": "log 2"}, {"measurement": "light to heavy ratio (L/H ratio) of acetylated peptide VYVLK(ac)FK (SEQ ID NO: 520)", "setting": "Proteasomal ubiquitin receptor ADRM1 [97], gene ADRM1, inhibitor:DMSO", "value": "−0.50", "unit": "log 2"}, {"measurement": "light to heavy ratio (L/H ratio) of acetylated peptide FEYK(ac)YSFK (SEQ ID NO: 340)", "setting": "Protein ERGIC-53 [49], LMAN1, drug:DMSO", "value": 0.00, "unit": "log 2"}, {"measurement": "light to heavy ratio (L/H ratio) of acetylated peptide HFAFK(ac)[…] (SEQ ID NO: 554)", "setting": "Protein FAM3C [72], gene FAM3C, inhibitor:DMSO", "value": 0.40, "unit": "log 2"}, {"measurement": "light to heavy ratio (L/H ratio), log 2 scale, acetylated peptide […](ac)PTK (SEQ ID NO: 804)", "setting": "Protein Jade-3 [735], gene PHF16, drug:DMSO", "value": 1.00}, {"measurement": "light to heavy ratio (L/H ratio), log 2 scale, acetylated peptide IANILK(ac)[…] (SEQ ID NO: 803)", "setting": "Protein disulfide-isomerase A4 [109], gene PDIA4, drug:DMSO", "value": 1.00}, {"measurement": "light to heavy ratio (L/H ratio) of acetylated peptide GYPTIK(ac)FFR (SEQ ID NO: 541)", "setting": "Protein disulfide-isomerase [103], gene P4HB, inhibitor:DMSO", "value": 0.39, "unit": "log 2"}, {"measurement": "light to heavy ratio (L/H ratio) of acetylated peptide THILLFLPK(ac)SVSDYDGK (SEQ ID NO: 297)", "setting": "Protein disulfide-isomerase [263], P4HB, drug:DMSO", "value": 0.75, "unit": "log 2"}, {"measurement": "light to heavy ratio (L/H ratio) of acetylated peptide VLVGK(ac)[…] (SEQ ID NO: 303)", "setting": "Protein disulfide-isomerase [375], P4HB, drug:DMSO", "value": 0.99, "unit": "log 2"}, {"measurement": "light to heavy ratio (L/H ratio) of acetylated peptide […](ac)K (SEQ ID NO: 286)", "setting": "Protein disulfide-isomerase [385], P4HB, drug:DMSO", "value": 0.62, "unit": "log 2"}, {"measurement": "light to heavy ratio (L/H ratio), log 2 scale, acetylated peptide VYK(ac)EMYK (SEQ ID NO: 777)", "setting": "Putative annexin A2-like protein [148], gene ANXA2P2, drug:DMSO", "value": 1.00}, {"measurement": "light to heavy ratio (L/H ratio), log 2 scale, acetylated peptide SVPHLQK(ac)VFDR (SEQ ID NO: 776)", "setting": "Putative annexin A2-like protein [227], gene ANXA2P2, drug:DMSO", "value": 1.00}, {"measurement": "light to heavy ratio (L/H ratio) of acetylated peptide SEVDMLK(ac)IR (SEQ ID NO: 295)", "setting": "Putative annexin A2-like protein [302], ANXA2P2, drug:DMSO", "value": 0.71, "unit": "log 2"}, {"measurement": "light to heavy ratio (L/H ratio) of acetylated peptide RMELK(ac)ADQLYK (SEQ ID NO: 275)", "setting": "Pyruvate dehydrogenase E1 component subunit alpha testis-specific form mitochondrial [75], PDHA2, drug:DMSO", "value": 0.51, "unit": "log 2"}, {"measurement": "L/H ratio of acetylated peptide EIDSVK(ac)[…] (SEQ ID NO: 73)", "setting": "RAC2 [153], log 2 scale, drug vs DMSO", "value": 0.00}, {"measurement": "L/H ratio of acetylated peptide (ac)ADK(ac)[…] (SEQ ID NO: 74)", "setting": "RBBP4 [4], log 2 scale, drug vs DMSO", "value": 0.00}, {"measurement": "L/H ratio of acetylated peptide ACFYNLDK(ac)FR (SEQ ID NO: 75)", "setting": "RBM17 [391], log 2 scale, drug vs DMSO", "value": 0.00}, {"measurement": "L/H ratio of acetylated peptide […](ac)SIPTLISR (SEQ ID NO: 76)", "setting": "RCC1 [366], log 2 scale, drug vs DMSO", "value": 0.00}, {"measurement": "L/H ratio of acetylated peptide FIDTTSK(ac)FGHGR (SEQ ID NO: 83)", "setting": "RPL3L [373], log 2 scale, drug vs DMSO", "value": 0.00}, {"measurement": "L/H ratio of acetylated peptide LNILK(ac)LAPGGHVGR (SEQ ID NO: 85)", "setting": "RPL4 [239], log 2 scale, drug vs DMSO", "value": 0.00}, {"measurement": "L/H ratio of acetylated peptide AASLK(ac)SNYNLPMHK (SEQ ID NO: 84)", "setting": "RPL4 [274], log 2 scale, drug vs DMSO", "value": 0.00}, {"measurement": "L/H ratio of acetylated peptide NFLGEK(ac)YIR (SEQ ID NO: 86)", "setting": "RPL9 [121], log 2 scale, drug vs DMSO", "value": 0.00}, {"measurement": "L/H ratio of acetylated peptide TGCIGAK(ac)HR (SEQ ID NO: 77)", "setting": "RPL11 [154], log 2 scale, drug vs DMSO", "value": 0.00}, {"measurement": "L/H ratio of acetylated peptide WFQQK(ac)YDGIILPGK (SEQ ID NO: 78)", "setting": "RPL11 [169], log 2 scale, drug vs DMSO", "value": 0.00}, {"measurement": "L/H ratio of acetylated peptide […](ac)SR (SEQ ID NO: 79)", "setting": "RPL18A [41], log 2 scale, drug vs DMSO", "value": 0.00}, {"measurement": "L/H ratio of acetylated peptide IEHIK(ac)HSK (SEQ ID NO: 80)", "setting": "RPL21, SNORD102, SNORA27, RPL21P19 [97], log 2 scale, drug vs DMSO", "value": 0.00}, {"measurement": "L/H ratio of acetylated peptide YLK(ac)YLTK (SEQ ID NO: 81)", "setting": "RPL22 [84], log 2 scale, drug vs DMSO", "value": 0.00}, {"measurement": "L/H ratio of acetylated peptide INFDK(ac)YHPGYFGK (SEQ ID NO: 82)", "setting": "RPL27A [47], log 2 scale, drug vs DMSO", "value": 0.00}, {"measurement": "L/H ratio of acetylated peptide", "setting": "RPPQTIK(ac)SVR (SEQ ID NO: 492), GDP-D-glucose phosphorylase C15orf58 [113], C15orf58", "value": "−1.00", "unit": "log 2"}, {"measurement": "L/H ratio of acetylated peptide LK(ac)[…] (SEQ ID NO: 89)", "setting": "RPS4X [53], log 2 scale, drug vs DMSO", "value": 0.00}, {"measurement": "L/H ratio of acetylated peptide SFQK(ac)IQVR (SEQ ID NO: 90)", "setting": "RPS7 [74], log 2 scale, drug vs DMSO", "value": 0.00}, {"measurement": "L/H ratio of acetylated peptide ELLTLDEK(ac)DPR (SEQ ID NO: 91)", "setting": "RPS9 [66], log 2 scale, drug vs DMSO", "value": 0.00}, {"measurement": "L/H ratio of acetylated peptide LQTQVFK(ac)LGLAK (SEQ ID NO: 92)", "setting": "RPS9 [116], log 2 scale, drug vs DMSO", "value": 0.00}, {"measurement": "L/H ratio of acetylated peptide […](ac)GK (SEQ ID NO: 87)", "setting": "RPS23 [135], log 2 scale, drug vs DMSO", "value": 0.00}, {"measurement": "L/H ratio of acetylated peptide LAVLK(ac)YYK (SEQ ID NO: 88)", "setting": "RPS27A [104], log 2 scale, drug vs DMSO", "value": 0.00}, {"measurement": "light to heavy ratio (L/H ratio) of acetylated peptide LLNK(ac)HGIK (SEQ ID NO: 528)", "setting": "Ribosomal L1 domain-containing protein 1 [120], gene RSL1D1, inhibitor:DMSO", "value": "−0.43", "unit": "log 2"}]}]}
